# Reference: US20250064762A1, “A SUBSTITUTED AROMATIC DICARBONIC ACID AMIDE AS AN INHIBITOR OF THE FERROPTOSIS SUPPRESSOR PROTEIN-1 (FSP1)” (JULIUS-MAXIMILIANS-UNIVERSITÄT WÜRZBURG, priority 2021, published 2025)
# Columns and labels:
# [1] = system: FSP1-WT or FSP1-KO HT1080 cells; assay: FIN-induced ferroptosis in FSP1-WT or FSP1-KO cells; type: cell-based, human; conditions: iFSP1 10 μM, CPBA 100 μM; for extent of sensitization to ferroptosis in FSP1-WT cells: FIN56, BSO or RSL3, 16 h; for additional effect in FSP1-deficient cells: FSP1-KO HT1080
# Experimental: (§1) The following HT1080 fibrosarcoma cell lines were generated using CRISPR/Cas9 technology, as previously described (Doll et al., 2019): HT1080 GPX4-knockout (KO) cells (maintained in the presence of 100 μM α-tocopherol); HT1080 GPX4 knockout cells overexpressing FSP1 (GPX4-KO/FSP1-OE); GPX4-KO cells overexpressing FSP1 and re-expressing GPX4 (GPX4-KO/FSP1-OE/GPX4-OE); HT1080 FSP1-WT or FSP1-KO cells; and HT1080 FSP1-KO cells reconstituted with either FSP1-WT or FSP1-G2A. LOX-IMVI (BRAF V600E heterozygous human melanoma cells) expressing either the Venus mock vector or FSP1-Venus (Doll et al., 2019) were grown in RPMI-1640 supplemented with 10% FCS, 2 mM L-glutamine and Pen/Strep.
# (§2) Cells were seeded onto 96-well plates (5,000 cells per well), and treated with serial dilutions of ferroptosis-inducing compounds (erastin, BSO, RSL3, FIN56) or cytotoxic drugs (staurosporine, nocodazole, tunicamycin, paclitaxel, etoposide, menadione, rotenone, FCCP, carboplatin) in the absence or presence of CPBA or iFSP1 (100 μM or 10 μM, respectively; unless stated otherwise) or the DMSO solvent control. Ferroptotic cell death was evaluated by incubating in the absence or presence of liproxstatin-1 (100 nM), ferrostatin-1 (200 nM), or deferoxamine (100 μM). Cell viability was assessed after 16 h using AquaBluer as an indicator of viable cells according to the manufacturer's recommendations (MultiTarget Pharmaceuticals, LLC). Fluorescence (excitation, 540 nm; emission, 590 nm) was analyzed on a Clariostar microplater reader.
# We next performed comparative experiments to compare the effect of CPBA with the effect of the small molecule FSP1 inihibitor iFSP1. To this end, we incubated FSP1-WT or FSP1-KO HT1080 cells with FIN56 (see FIG. 15), BSO (see FIG. 16) or RSL3 (see FIG. 17) to induce ferroptosis as described above. Lack of FSP1 expression in FSP1-KO cell lines was confirmed by Western Blot as described above (see FIG. 14).
# Next, we compared the treatment of FSP1-WT and FSP1-KO cells with either iFSP1 or with CPBA (see FIGS. 15, 16 and 17).
# HT1080 cells = assay: Lipid peroxidation, BODIPY 581/591-C11 probe, flow cytometry; type: cell-based, human; conditions: 100 μM CPBA; 16 h; subeffective RSL3, FIN56 or BSO
# Experimental: Approximately 10,000 HT1080 cells were seeded per well of a 48-well dish. The next day, cells were treated for 16 h with DMSO (0.1%, solvent control), CPBA (100 μM), or liproxstatin-1 (100 nM) in the absence or presence of subeffective concentrations of RSL3 (50 nM), FIN56 (50 nM), or BSO (1 μM). Cells were incubated with the BODIPY 581/591-C11 probe (1 μM) for 30 min at 37° C. in a tissue culture incubator, harvested by trypsinization, and resuspended in 500 μL phosphate-buffered saline supplemented with 0.5 mg/mL soybean trypsin inhibitor (Sigma Aldrich). Cells were analyzed using the 488-nm laser of a flow cytometer (FACSCalibur, BD Biosciences) for excitation. […] At least 5,000 cells were analyzed per sample. […]
# Effects of CPBA on cellular lipid peroxidation were investigated using a BODIPY 581/591-C11 probe as described above. […] Oxidation of the polyunsaturated butadienyl portion of the dye results in a shift of the fluorescence emission peak from about 595 nm (nonoxidized form) to about 520 nm (oxidized form) (see FIG. 8).
# HT1080 cells were incubated for 16 h with DMSO (0.1%, solvent control), CPBA (100 μM), or liproxstatin-1 (lip-1, 100 nM) in the absence or presence of subeffective concentrations of RSL3 (50 nM), FIN56 (50 nM), or BSO (1 μM). Fluorescence intensity was quantified by flow cytometry using a 530 nm band-pass filter as described above and quantified. […]
# [2] = system: mouse embryonic fibroblasts (MEFs), Hepa 1-6 mouse hepatocellular carcinoma cells; assay: Concentration-dependent toxicity of FIN56 with CPBA or iFSP1 in mouse cells; type: cell-based; conditions: for sensitization to FIN56-induced ferroptosis in mouse cells: MEFs or Hepa 1-6 cells
# Experimental: as §2
# In order to test concentration-dependent toxicity of treatment with FIN56 and either CPBA or iFSP1, we treated mouse embryonic fibroblasts (MEFs, see FIG. 21A), or Hepa 1-6 mouse hepatocellular carcinoma cells (see FIG. 21B) with DMSO solvent control, or with the indicated concentrations of CPBA or iFSP1. Ferroptotic cell death was assessed by incubation in the absence or presence of liproxstatin-1 (lip-1; A, 500 nM; B, 250 nM).
# [3] = system: HT1080 FSP1-KO cells reconstituted with either FSP1-WT or FSP1-G2A; assay: FIN56-induced ferroptosis in FSP1-KO cells reconstituted with FSP1-WT or FSP1-G2A; type: cell-based, human; conditions: iFSP1 10 μM, CPBA 100 μM
# Experimental: as §1
# In order to study the effect of FSP1 membrane targeting on iFSP1 or CPBA-dependent ferroptosis sensitization, HT1080 FSP1-KO cells reconstituted with either FSP1-WT or the membrane binding-incompetent myristoylation mutant FSP1-G2A were incubated with serial FIN56-dilutions in the absence or presence of the DMSO solvent control, iFSP1 (10 μM), or CPBA (100 μM) (see FIG. 18A).
# [4] = system: LOX-IMVI human melanoma cells; assay: FIN56-induced ferroptosis in LOX-IMVI cells with mock vector or FSP1-Venus; type: cell-based
# Experimental: as §1
# LOX-IMVI cells are FSP1-deficient, and were reconstituted with either mock vector (expressing Venus), or with FSP1-Venus to restore FSP1 expression, and treated with either CPBA or iFSP1 as described above (see FIG. 18B).
SMILES,extent of sensitization to ferroptosis in FSP1-WT cells [1],additional effect in FSP1-deficient cells [1],amount of lipid peroxidation (HT1080 cells),sensitization to FIN56-induced ferroptosis in mouse cells [2],ferroptosis sensitization depending on FSP1 membrane targeting [3],effect in cells reconstituted with FSP1-Venus ([4]; CPBA- and FIN56-treated cells),enhancement of the ferroptosis-inducing effect of FIN56 ([4]; FSP1-deficient cells (mock vector)),concentrations that are non-specifically toxic to cells ([2]; 16 h),"effectiveness in LOX-IMVI cells ([4]; as described previously (Doll et al., Nature 2019))"
"O=C(Nc1ccccc1C(=O)O)c1ccc(Oc2ccc(C(=O)Nc3ccccc3C(=O)O)cc2)cc1 [CPBA, 2-[[4-[4-[(2-carboxyphenyl)carbamoyl]phenoxy]benzoyl]amino]-benzoic acid]",comparable to the effect of FSP1-deficiency,no additional effect of iFSP1 or CPBA is observed in FSP1-deficient cells,the amount of lipid peroxidation in the cells is increased,sensitizes MEFs or Hepa 1-6 cells to FIN56-induced ferroptosis,sensitize FSP1-proficient cells to ferroptosis only if FSP1 can be targeted to membranes,FSP1-expression rescues CPBA- and FIN56-treated cells from ferroptosis,does not enhance the ferroptosis-inducing effect of FIN56 in FSP1-deficient cells,–,–
"Cc1ccc(-c2c(C#N)c(N)n3c(nc4ccccc43)c2C#N)cc1 [iFSP1, reference compound]",slightly smaller than the effect of CBPA in all conditions,no additional effect of iFSP1 or CPBA is observed in FSP1-deficient cells,–,does not have an effect on mouse cell lines,sensitize FSP1-proficient cells to ferroptosis only if FSP1 can be targeted to membranes,–,–,> 10 µM,ineffective in LOX-IMVI cells
